Results on three molecules are retold here after ChEMBL document CHEMBL1128773, “Synthesis and pharmacological profile of FCE 28654: A water-soluble and injectable ACAT inhibitor” (Bioorg Med Chem Lett, 1995).

The structures appear in SMILES notation.

Test [1] concerns the target T1, Sterol O-acyltransferase 1 (Rattus norvegicus) (UniProt O70536).
T1 sequence (whole entry): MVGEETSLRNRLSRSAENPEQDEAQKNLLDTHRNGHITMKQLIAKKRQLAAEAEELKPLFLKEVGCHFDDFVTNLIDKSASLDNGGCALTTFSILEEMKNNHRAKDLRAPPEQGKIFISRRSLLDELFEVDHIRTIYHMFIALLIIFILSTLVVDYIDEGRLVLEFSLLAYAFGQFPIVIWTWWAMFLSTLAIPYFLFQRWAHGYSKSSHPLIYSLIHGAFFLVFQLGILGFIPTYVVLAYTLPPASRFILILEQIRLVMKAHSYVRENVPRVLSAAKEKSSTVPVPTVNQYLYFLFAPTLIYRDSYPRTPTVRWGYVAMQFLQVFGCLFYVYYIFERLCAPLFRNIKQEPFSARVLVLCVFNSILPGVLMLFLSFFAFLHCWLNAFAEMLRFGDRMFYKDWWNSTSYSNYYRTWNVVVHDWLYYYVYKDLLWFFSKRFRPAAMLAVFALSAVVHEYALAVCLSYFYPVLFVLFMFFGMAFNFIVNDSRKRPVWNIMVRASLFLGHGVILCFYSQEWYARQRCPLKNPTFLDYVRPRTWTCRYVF
As to the kind of experiment: (§1) Inhibition of microsomal acyl-CoA: cholesterol acyltransferase in the presence of plasma from rats administered orally with 100 mg/kg of the compound; pmoles [14C]-Cholesteryl oleate formed / mg protein / min incubation. The arrangement: dose 100 mg/kg. The class given is organism-based.

Test [2] has as its target T2, Acyl-CoA:cholesterol acyltransferase (Oryctolagus cuniculus, UniProt Q95214).
T2 sequence (Q95214 whole entry): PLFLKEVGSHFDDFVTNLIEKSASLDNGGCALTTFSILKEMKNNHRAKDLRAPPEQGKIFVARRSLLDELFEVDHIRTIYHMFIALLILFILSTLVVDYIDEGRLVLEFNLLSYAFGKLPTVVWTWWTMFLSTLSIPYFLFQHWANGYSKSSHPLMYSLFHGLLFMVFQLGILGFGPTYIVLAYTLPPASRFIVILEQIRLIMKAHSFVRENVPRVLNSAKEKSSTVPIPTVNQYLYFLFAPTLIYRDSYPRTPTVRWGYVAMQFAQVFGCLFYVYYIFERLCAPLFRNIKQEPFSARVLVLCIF
As to the kind of experiment: Inhibitory activity against acyl-CoA: cholesterol acyltransferase (ACAT) in microsomes from cholesterol-fed rabbit thoracic aorta.

The subject of test [3] is Rattus norvegicus. The test can be described thus: Effect of single oral administration of 15 mg/kg of compound on triglycerides of hypercholesterolemic rats. It counts as functional, organism-based. Details: dose 15 mg/kg.
Test [4] deals with Rattus norvegicus. As to the kind of experiment: Effect of single oral administration of 15 mg/kg of compound on cholesterol esters of hypercholesterolemic rats. The class given is functional, organism-based. Details: dose 15 mg/kg.
Test [5] concerns the target T2, Acyl-CoA:cholesterol acyltransferase. The test can be described thus: Inhibitory activity against acyl-CoA: cholesterol acyltransferase (ACAT) in microsomes from cholesterol-fed rabbit intestinal mucosa.
Test [6] deals with Rattus norvegicus. As to the kind of experiment: Effect of single oral administration of 15 mg/kg of compound on free cholesterol of hypercholesterolemic rats. It counts as functional, organism-based. The arrangement: dose 15 mg/kg.
In test [7] the test system is Rattus norvegicus. As to the kind of experiment: Effect of single oral administration of 15 mg/kg of compound on phospholipids of hypercholesterolemic rats. It counts as functional, organism-based. Details: dose 15 mg/kg.
The test system of test [8] is Rattus norvegicus. The test can be described thus: Effect of single oral administration of 2 mg/kg of compound on triglycerides of hypercholesterolemic rats. Details: dose 2 mg/kg. It counts as functional, organism-based.
For test [9], the system named is Mus musculus. The test can be described thus: Effect of single oral administration of 10 mg/kg of compound on free cholesterol of hypercholesterolemic mice. Details: dose 10 mg/kg. The class given is functional, organism-based.
Test [10] can be described thus: Ratio of effect of single iv administration of compound at dose 10 mg/kg on liver free cholesterol/cholesterol esters of hypercholesterolemic mice. It counts as functional.
The subject of test [11] is Mus musculus. The test can be described thus: Effect of single oral administration of 10 mg/kg of compound on triglycerides of hypercholesterolemic mice. The class given is functional, organism-based. Details: dose 10 mg/kg.
In test [12] the test system is Mus musculus. As to the kind of experiment: Effect of single oral administration of 10 mg/kg of compound on cholesterol esters of hypercholesterolemic mice. Details: dose 10 mg/kg. The class given is functional, organism-based.
The target in test [13] is T1, Sterol O-acyltransferase 1 (Rattus norvegicus). The description is as §1. The arrangement: dose 100 mg/kg. It counts as functional, organism-based.
In test [14] the test system is Mus musculus. The test can be described thus: Effect of single oral administration of 10 mg/kg of compound on phospholipids of hypercholesterolemic mice. The class given is functional, organism-based. The arrangement: dose 10 mg/kg.
Test [15] can be described thus: Ratio of effect of single oral administration of 15 mg/kg of compound on liver free cholesterol/cholesterol esters of hypercholesterolemic rats. The class given is functional.
In test [16] the test system is Rattus norvegicus. The test can be described thus: Effect of single oral administration of 2 mg/kg of compound on free cholesterol of hypercholesterolemic rats. It counts as functional, organism-based. Details: dose 2 mg/kg.
For test [17], the system named is Rattus norvegicus. As to the kind of experiment: Effect of single oral administration of 2 mg/kg of compound on phospholipids of hypercholesterolemic rats. Details: dose 2 mg/kg. It counts as functional, organism-based.
In test [18] the test system is Rattus norvegicus. As to the kind of experiment: Effect of single oral administration of 2 mg/kg of compound on cholesterol esters of hypercholesterolemic rats. The class given is functional, organism-based. Details: dose 2 mg/kg.
The nature of test [19]: Ratio of effect of single iv administration of compound at dose 2 mg/kg on liver free cholesterol/cholesterol esters of hypercholesterolemic rats. The class given is functional.

Consider `CC(C)c1cccc(C(C)C)c1NC(=O)NCC1(c2ccccc2)O[C@H](C)[C@@H](C)O1`, for which the Activity in test [1] is 286. Moreover, the results for the IC50 in test [2] and in test [5] were 0.0242 µM and 0.027 µM, respectively. The Plasma lipids was found to be 76 mg/dL in [3], 57 mg/dL in [4], 18 mg/dL in [6] and 77 mg/dL in test [7].
With `CC(C)c1cccc(C(C)C)c1NC(=O)NCC1(c2ccc(OP(=O)(O)O)cc2)O[C@H](C)[C@@H](C)O1`, the Plasma lipids in test [8] was found to be 126 mg/dL; in [9] it was 26 mg/dL; in test [11] it was 71 mg/dL; in test [3], 98 mg/dL; in [12], 79 mg/dL; in [4], 73 mg/dL. Moreover, the Plasma lipids in test [14] was 142 mg/dL; in [16], 39 mg/dL; in test [17], 138 mg/dL; in [18] it was 134 mg/dL; in test [6], 28 mg/dL; in [7], 84 mg/dL. Further, the IC50 stood at 2.55 µM in test [2] and 1.08 µM in [5]. In addition, the Ratio worked out at 0.316 in [10], 0.38 in [15] and 0.188 in test [19]. The Activity in test [13] turned out to be 148.
As to `CC(C)c1cccc(C(C)C)c1NC(=O)NCC1(c2ccc(O)cc2)O[C@H](C)[C@@H](C)O1`, the Plasma lipids in test [3] stood at 126 mg/dL; in [4], 75 mg/dL; in [6], 33 mg/dL; in test [7] it was 96 mg/dL.
